Measurements reported in patent US7973047B2, “Beta-Secretase modulators and methods of use” (Amgen Inc., priority 2010, dated 2011).
Read-outs that look alike come from different tables or passages of the source.

Test system: Aβ40 in conditioned medium of cells stably expressing Amyloid Precursor Protein (APP)
Experiment: BACE cell-based assay: Aβ40 in conditioned medium by sandwich ELISA
How it was run: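 Aβ40 in conditioned medium was read by time-resolved fluorescence sandwich ELISA (capture pAb40, detection biotinylated 6E10, 4° C incubations). Compounds were applied for 24 h to cells stably expressing APP, at 10 doses from 100 or 10 μM top, 0.1% DMSO. IC50 derived from percent of control.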

[1] = cell based assay data of Table 4, unit inferred, read-out: Cell Assay
[2] = cell based assay data, Table 4, unit inferred, read-out: Cell Assay

Structure (SMILES) | IC50 [1] | IC50 [2] | also measured
CC(=O)N[C@@H](Cc1ccc(F)cc1)[C@H](O)CN[C@H]1C[C@]2(C[C@H](C)C2)Oc2ncc(CC(C)C)cc21 [compound 615, N-((1S,2R)-1-((4-fluorophenyl)methyl)-2-hydroxy-3-(((1s,3R,4′S)-3-methyl-6′-(2-methylpropyl)-3′,4′-dihydrospiro[cyclobutane-1,2′-pyrano[2,3-b]pyridin]-4′-yl)amino)propyl)acetamide] | 24.8 nM |  | 
CC(=O)N[C@@H](Cc1ccccc1)[C@H](O)CN[C@H]1CC2(CCC2)Oc2ncc(C3CCCO3)cc21 (stereo partly drawn) [Example 384] |  |  | IC50 (cells stably expressing APP, 24 h incubation with compound, Aβ40 in supernatant by sandwich ELISA, read-out: IC50 values in the cell-based assay (inhibition or reduction of Aβ40)): ≤ 5000 nM
CC(=O)N[C@@H](Cc1cccc(F)c1F)[C@H](O)CN[C@H]1CC2(CCC2)Oc2c1cc(CC(C)(C)C)nc2N(C)C [compound 601] | 227 nM |  | 
CC(=O)N[C@@H](Cc1ccc(Cl)cc1)[C@H](O)CN[C@H]1CC2(CCC2)Oc2c1cc(CC(C)(C)C)nc2N(C)C [compound 600] | 634 nM |  | 
CNc1nc(CC(C)(C)C)cc2c1OC1(CCC1)C[C@@H]2NC[C@@H](O)[C@H](Cc1cccc(F)c1)NC(C)=O [compound 590] | 1.41 nM |  | 
CCCc1nc(C[C@H](NC(C)=O)[C@H](O)CN[C@H]2CC3(CCC3)Oc3ncc(CC(C)(C)C)cc32)cs1 [compound 636, N-((1S,2R)-3-(((4′S)-6′-(2,2-dimethylpropyl)-3′,4′-dihydrospiro[cyclobutane-1,2′-pyrano[2,3-b]pyridin]-4′-yl)amino)-2-hydroxy-1-((2-propyl-1,3-thiazol-4-yl)methyl)propyl)acetamide] | 14.6 nM |  | 
CC(=O)N[C@@H](CC(C)C)[C@H](O)CN[C@H]1CC2(CCC2)Oc2ncc(CC(C)(C)C)cc21 [compound 538, N-((1S)-1-((1R)-2-(((4′S)-6′-(2,2-dimethylpropyl)-3′,4′-dihydrospiro[cyclobutane-1,2′-pyrano[2,3-b]pyridin]-4′-yl)amino)-1-hydroxyethyl)-3-methylbutyl)acetamide] | 177 nM |  | 
CCCc1scnc1C[C@H](NC(C)=O)[C@H](O)CN[C@H]1CC2(CCC2)Oc2ncc(CC(C)(C)C)cc21 [compound 637, N-((1S,2R)-3-(((4′S)-6′-(2,2-dimethylpropyl)-3′,4′-dihydrospiro[cyclobutane-1,2′-pyrano[2,3-b]pyridin]-4′-yl)amino)-2-hydroxy-1-((5-propyl-1,3-thiazol-4-yl)methyl)propyl)acetamide] | 922 nM |  | 
CC(=O)N[C@@H](Cc1ccccc1)[C@H](O)CN[C@H]1CC2(CCC2)Cc2ncc(C)cc21 [compound 541, N-((1S,2R)-2-hydroxy-3-(((5′S)-3′-methyl-5′,8′-dihydro-6′H-spiro[cyclobutane-1,7′-quinolin]-5′-yl)amino)-1-(phenylmethyl)propyl)acetamide] | 651 nM |  | 
COC(=O)N[C@@H](Cc1ccc(Cl)cc1)[C@H](O)CN[C@H]1CC2(CCC2)Oc2ncc(CC(C)(C)C)cc21 [compound 627] | 936 nM |  | 
CC(=O)N[C@@H](Cc1ccccc1)[C@H](O)CN[C@H]1CC2(CCC2)Oc2ncc(CC(C)(C)C(F)F)cc21 [compound 652] | 7.84 nM |  | 
CC(=O)N[C@@H](Cc1ccc(F)cc1)[C@H](O)CN[C@H]1CC2(CCC2)Oc2cnc(CC(C)(C)C)cc21 [compound 570] | 22.1 nM |  | 
COc1ccc(C[C@H](NC(C)=O)[C@H](O)CN[C@H]2CC3(CCC3)Oc3ncc(CC(C)(C)C)cc32)cc1F [compound 665] | 8.53 nM |  | 
CC(=O)N[C@@H](Cc1cccc(F)c1)[C@H](O)CN[C@H]1CC2(CCC2)Oc2c1cc(CC(C)(C)C)[nH]c2=O [compound 594] | 23.4 nM |  | 

Further lines, with some results ahead:

IC50 [1] | IC50 [2] | Structure (SMILES) | also measured
 | 8.39 nM | CC(=O)N[C@@H](Cc1cc(F)cc(Cl)c1)[C@H](O)CN[C@H]1CC(C)(C)Oc2cnc(CC(C)(C)C)cc21 [compound 796] | 
18.1 nM |  | CC(=O)N[C@@H](Cc1ccc(F)c(C(F)(F)F)c1)[C@H](O)CN[C@H]1CC2(CCC2)Oc2ncc(CC(C)(C)C)cc21 [compound 676] | 
 | 83.3 nM | CC(=O)N[C@@H](Cc1ccccc1)[C@H](O)CN[C@H]1CC2(CCC2)Oc2ccc(-c3cccs3)cc21 [compound 778] | 
 | 5.7 nM | CC(=O)N[C@@H](Cc1ccc(F)cc1)[C@H](O)CN[C@H]1C[C@]2(C[C@H](C)C2)Oc2ncc(CC(C)(C)C)cc21 [compound 767, N-((1S,2R)-3-(((1s,3R,4′S)-6′-(2,2-dimethylpropyl)-3-methyl-3′,4′-dihydrospiro[cyclobutane-1,2′-pyrano[2,3-b]pyridin]-4′-yl)amino)-1-((4-fluorophenyl)methyl)-2-hydroxypropyl)acetamide] | 
 | 137 nM | CC(=O)N[C@@H](Cc1ccc(F)c(F)c1F)[C@H](O)CN[C@H]1CC2(CCC2)Oc2ncc(CC(C)C)cc21 [compound 816] | 
 | 190 nM | CC(=O)N[C@@H](Cc1ccccc1)[C@H](O)CN[C@H]1CC2(CCC2)Oc2ccc(-c3ccn(CC(C)C)n3)cc21 [compound 779] | 
37.2 nM |  | CCCc1cnc2c(c1)[C@@H](NC[C@@H](O)[C@H](Cc1ccc(F)cc1)NC(C)=O)CC1(CCC1)O2 [compound 694] | 
 | 3.98 nM | CC(=O)N[C@@H](Cc1cccc(C(F)(F)F)c1)[C@H](O)CN[C@H]1CC2(CCC2)Oc2ncc(CC(C)(C)C)cc21 [compound 718] | 
 | 2970 nM | CC(=O)N[C@@H](Cc1cc(F)cc(F)c1)[C@H](O)CN[C@H]1CC2(CCC2)Oc2ccc(-c3cccs3)cc21 [compound 785] | 
 | 23.3 nM | CC(=O)N[C@@H](Cc1ccc(Cl)c(C(F)(F)F)c1)[C@H](O)CN[C@H]1CC2(CCC2)Oc2ncc(CC(C)(C)C)cc21 [compound 716] | 
 | 126 nM | CC(=O)N[C@@H](Cc1ccc(F)cc1)[C@H](O)CN[C@H]1CC(C)(C)Oc2c1cc(CC(C)(C)C)nc2Cl [compound 761] | 
 | 68.8 nM | CC(=O)N[C@@H](CC1CC1)[C@H](O)CN[C@H]1C[C@]2(C[C@H](C)C2)Oc2ncc(CC(C)(C)C)cc21 [compound 725, N-((1S,2R)-1-(cyclopropylmethyl)-3-(((1s,3R,4′S)-6′-(2,2-dimethylpropyl)-3-methyl-3′,4′-dihydrospiro[cyclobutane-1,2′-pyrano[2,3-b]pyridin]-4′-yl)amino)-2-hydroxypropyl)acetamide] | 
3.46 nM |  | CC(=O)N[C@@H](Cc1cc(F)cc(F)c1)[C@H](O)CN[C@H]1CC2(CCC2)Oc2ncc([C@H](F)C(C)(C)C)cc21 [compound 681] | 
 | 2.32 nM | CC(=O)N[C@@H](Cc1cccnc1)[C@H](O)CN[C@H]1CC2(CCC2)Oc2ncc(CC(C)(C)C)cc21 [compound 824, N-((1S,2R)-3-(((4′S)-6′-(2,2-dimethylpropyl)-3′,4′-dihydrospiro[cyclobutane-1,2′-pyrano[2,3-b]pyridin]-4′-yl)amino)-2-hydroxy-1-(3-pyridinylmethyl)propyl)acetamide] | 
 | 981 nM | CC(=O)N[C@@H](Cc1ccccc1)[C@H](O)CN[C@H]1CC2(CCC2)Oc2ccc(NC(C)(C)C)cc21 [compound 772] | 
 | 148 nM | CC(=O)N[C@@H](Cc1ccc(F)cc1)[C@H](O)CN[C@H]1CC2(CCC2)Oc2ncc(C(F)C(C)C(F)(F)F)cc21 (stereo partly drawn) [compound 859] | 
 | 3260 nM | CCCOC[C@H](NC(C)=O)[C@H](O)CN[C@H]1CC2(CCC2)Oc2ccc(CC)cc21 [compound 732] | 
6.04 nM |  | CC(=O)N[C@@H](Cc1ccccc1)[C@H](O)CN[C@H]1CC2(CCC2)Oc2ncc([C@H](F)C(C)(C)C)cc21 [compound 679] | 
7.84 nM |  | CC(=O)N[C@@H](Cc1cc(F)cc(F)c1)[C@H](O)CN[C@H]1CC2(CCC2)Oc2ncc(CC3CC3)cc21 [compound 687] | 
